Laboratory results from PMC4099364, “Comparing Binding Modes of Analogous Fragments Using NMR in Fragment-Based Drug Design: Application to PRDX5” (PLoS ONE, 2014).

Biological target: T1, human peroxiredoxin 5 (PRDX5) (Homo sapiens, UniProt P30044)
T1 construct: 6xHis-tagged, pQE-30, E. coli M15, 15N-labelled for HSQC; reduced with DTT
T1 sequence (P30044 54-214): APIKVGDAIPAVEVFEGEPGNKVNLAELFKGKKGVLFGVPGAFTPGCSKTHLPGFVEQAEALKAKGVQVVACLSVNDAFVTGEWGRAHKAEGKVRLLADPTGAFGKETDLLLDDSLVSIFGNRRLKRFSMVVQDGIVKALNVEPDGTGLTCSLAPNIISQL
Test: […]-HSQC NMR titration (combined CSP fit)
Type: binding

## Oc1cccc(-c2ccccc2)c1O [compound 5, 2,3 dihydroxy-biphenyl]
  Kd: 390 ± 50 µM
